Data published in patent publication US10087199B2, “Super-resolution imaging compositions and methods using same” (Yale University, priority 2014, dated 2018).

Tested on: HeLa cells (Golgi label)
Assay: Photostability in sequential 3D spinning disk confocal imaging
Assay type: cell-based
Conditions: fixed cells
Description: The relative photostability of Cer-TCO/SiR-Tz to both BODIPY-Cer and the SiR labeled SNAP-tag Golgi protein Rab6 was compared. The latter is the product of reaction between Rab6-SNAP and a benzyl guanine derivative of SiR (SiR-BG) (Lukinavicius, et al., 2013, Nature Chem. 5:132-139) and thus contains the same near-IR dye as SiR-Tz (FIGS. 5A-5B). HeLa cells were treated with Cer-TCO/SiR-Tz or BODIPY-Cer, while Rab6-SNAP-expressing cells were treated with SiR-BG. The cells were then examined in sequential 3D images using spinning disk confocal microscopy; 3D visualization limited fluorescence fluctuations due to axial sample drift. In each case, 3D “stacks” of 22 optical sections were acquired in series up to 500 times in live or fixed cells (FIGS. 5A-5B). In live cells, even under optimal imaging conditions the BODIPY-Cer fluorescent signal decreased by 50% after fewer than 15 stacks. In striking contrast, the fluorescent signal of cells treated with 2 μM Cer-TCO followed by 2 μM SiR-Tz decreased by only 10% after more than 120 3D stacks had been acquired. Consistent with a lower density of Rab6-SNAP protein in the Golgi, the signal from Rab6-SNAP-SiR decayed at an intermediate rate, decreasing by 50% after about 50 3D stacks. […] After 500 3D stacks the fluorescent signal of Cer-SiR decreased 16% whereas that of Rab6-SNAP-SiR decreased by 84%. […]

Question: Which “Decrease of fluorescent signal after 500 3D stacks” value does the source give for `CCCCCCCCCCCCC/C=C/[C@@H](O)[C@H](CO)NC(=O)CCCCCNC(=O)OC1CCCC2=C(c3ccc(CNC(=O)c4ccc(C(=O)[O-])c(C5=C6C=CC(=[N+](C)C)C=C6[Si](C)(C)c6cc(N(C)C)ccc65)c4)cc3)NN=CC2CC1` (stereo partly drawn) [Cer-SiR, 4-((4-(7-(((6-(((2S,3R,E)-1,3-dihydroxyoctadec-4-en-2-yl)amino)-6-oxohexyl)carbamoyl)oxy)-2,4a,5,6,7,8,9,10-octahydrocycloocta[d]pyridazin-1-yl)benzyl)carbamoyl)-2-(7-(dimethylamino)-3-(dimethyliminio)-5,5-dimethyl-3,5-dihydrodibenzo[b,e]silin-10-yl)benzoate] here?
Answer: 16%
